Laboratory results from ChEMBL document CHEMBL5260811, “Drug development against tuberculosis: Impact of alkaloids” (Eur J Med Chem, 2017).
Converted amounts (≈) assume the structure as drawn.

Key:
[1] = test system: Mycobacterium tuberculosis; test: Antimycobacterial activity against Mycobacterium tuberculosis; assay type: functional; conditions: Mycobacterium tuberculosis
[2] = test system: Mycobacterium tuberculosis; test: Antimycobacterial activity against Mycobacterium tuberculosis H37Rv by microplate alamar blue assay; assay type: functional
[3] = test system: Mycolicibacterium fortuitum; test: Antimycobacterial activity against Mycobacterium fortuitum; assay type: functional
[4] = test system: Mycolicibacterium smegmatis; test: Antimycobacterial activity against Mycobacterium smegmatis; assay type: functional; conditions: Mycolicibacterium smegmatis
[5] = test system: Mycolicibacterium vaccae; test: Antimycobacterial activity against Mycobacterium vaccae; assay type: functional
[6] = test system: Mycobacterium tuberculosis; test: Antimycobacterial activity against Mycobacterium tuberculosis H37Rv; assay type: functional
[7] = test system: Mycobacterium intracellulare; test: Antimycobacterial activity against Mycobacterium intracellulare; assay type: functional, organism-based
[8] = test system: Mycobacterium tuberculosis; test: Antimycobacterial activity against Mycobacterium tuberculosis H37Ra; assay type: functional
[9] = test system: Mycolicibacterium phlei; test: Antimycobacterial activity against Mycobacterium phlei; assay type: functional
[10] = test system: Mycobacterium tuberculosis; test: Antimycobacterial activity against Mycobacterium tuberculosis H37Rv at 50 ug/ml relative to control; assay type: functional
[11] = test system: Mycobacterium; test: Antimycobacterial activity against Mycobacterium; assay type: functional
[12] = test system: Mycobacterium kansasii; test: Antimycobacterial activity against Mycobacterium kansasii; assay type: functional
[13] = test system: Mycobacterium avium; test: Antimycobacterial activity against Mycobacterium avium; assay type: functional
[14] = test system: Mycobacterium tuberculosis; test: Antimycobacterial activity against Mycobacterium tuberculosis H37Ra by green fluorescent protein microplate assay; assay type: functional
[15] = test system: Mycobacterium tuberculosis; test: Antimycobacterial activity against Mycobacterium tuberculosis Rv3547; assay type: functional
[16] = test system: Mycobacterium tuberculosis; test: Antimycobacterial activity against MDR/XDR Mycobacterium tuberculosis; assay type: functional
[17] = test system: Mycobacterium tuberculosis; test: Antimycobacterial activity against Mycobacterium tuberculosis rv0678; assay type: functional
[18] = test system: Mycobacterium tuberculosis; test: Antimycobacterial activity against Mycobacterium tuberculosis in presence of isoniazid; assay type: functional
[19] = test system: Mycobacterium tuberculosis; test: Antimycobacterial activity against Mycobacterium tuberculosis in presence of ethambutol; assay type: functional
[20] = test system: Mycobacterium sp.; test: Antimycobacterial activity against Mycobacterium sp.; assay type: functional
[21] = test system: Mycobacterium tuberculosis; test: Antimycobacterial activity against Mycobacterium tuberculosis in presence of banegasine; assay type: functional
[22] = test system: Mycobacterium avium; test: Antimycobacterial activity against Mycobacterium avium in presence of banegasine; assay type: functional
[23] = test system: Mycolicibacterium smegmatis; test: Antimycobacterial activity against Mycobacterium smegmatis in presence of banegasine; assay type: functional

SMILES: O=Cc1ccc2[nH]c3ccccc3c2c1
- MIC [1]: 100 µg/mL (≈ 512 µM)
- MIC [2]: 42.3 µg/mL (≈ 217 µM)

SMILES: COc1ccc2[nH]c3ccc(C=O)cc3c2c1
- MIC [2]: 15.6 µg/mL (≈ 69.3 µM)

SMILES: CCCCCCc1cc(Cl)c(O)c(C(=O)c2c[nH]c(Cl)c2Cl)c1O
- MIC [3]: 0.05 µg/mL (≈ 0.128 µM)
- MIC [4]: 0.05 µg/mL (≈ 0.128 µM)
- MIC [5]: 0.05 µg/mL (≈ 0.128 µM)

SMILES: Oc1cccc2c1[nH]c1c(C3=C[C@@]4(O)CC/C=C\CCCCN5CCC3[C@]3(C[C@@H]6/C=C\CCCCN6[C@H]34)C5)nccc12 (some centres not stated)
- MIC [6]: 0.4 µg/mL (≈ 0.708 µM)
- IC50 [7]: 3.5 µg/mL (≈ 6.2 µM)

SMILES: CC[C@H]1C=CCC[C@@]2(C[C@@H]3CC[C@@H]4[C@H](C(=O)OCCCCCCCCCCCCCCCC(=O)N(CCCN)CC(O)CCN)[C@]5(CCC[C@@H](C)O5)N=C(N2)N34)O1 (some centres not stated)
- MIC [2]: 46.5 µg/mL (≈ 58 µM)

SMILES: O=C1CCCN2[C@@H](CC1)C[C@]13CN4CCCC/C=C\CC[C@](O)(C=C(c5nccc6c5[nH]c5c(O)cccc56)[C@@H]1CC4)[C@H]23
- MIC [6]: 0.4 µg/mL (≈ 0.689 µM)
- IC50 [7]: 3.5 µg/mL (≈ 6.03 µM)

SMILES: COc1ccc2c(c1)[nH]c1cc(O)c(C=O)cc12
- MIC [1]: 100 µg/mL (≈ 415 µM)
- MIC [8]: 25 µg/mL (≈ 104 µM)

SMILES: O=C1C=CC2=NC=CC3c4ccccc4N1C23 (configuration not stated)
- MIC [4]: 8 µg/mL (≈ 36 µM)
- MIC [9]: 8 µg/mL (≈ 36 µM)

SMILES: C/C=C1\CN2CC[C@@H]1[C@](CO)(C(=O)OC)c1[nH]c3ccccc3c1C2
- inhibition at 50 µg/mL [10]: 50%

SMILES: COC1=C(Br)[C@@H](O)[C@]2(C=C1Br)CC(C(=O)NC[C@@H](O)COc1c(Br)cc(C(O)CNC(=O)C3=NO[C@@]4(C=C(Br)C(OC)=C(Br)[C@H]4O)C3)cc1Br)=CO2 (some centres not stated)
- MIC [11]: 7.9 µg/mL

SMILES: COc1ccc2[nH]c3cc(O)c(C=O)cc3c2c1
- MIC [2]: 14.3 µg/mL (≈ 59.3 µM)

SMILES: CC/C=C(\C)C[C@H](C)C[C@H](C)/C(O)=C1/C(=O)N[C@@H]([C@@H](O)c2ccc(O)cc2)C1=O
- MIC [5]: 6.25 µg/mL (≈ 15.6 µM)

SMILES: CC(C)=CCOc1ccc(C2=C(Cc3ccccc3)C(=O)N(O)C2=O)cc1
- MIC [9]: 25 µg/mL (≈ 68.8 µM)

SMILES: c1cncc(-c2ncc(-c3ccc4c(c3)OCO4)o2)c1
- MIC [12]: 25 µg/mL (≈ 93.9 µM)
- MIC [1]: 25 µg/mL (≈ 93.9 µM)
- MIC [13]: 25 µg/mL (≈ 93.9 µM)

SMILES: O=C([C@H]1[C@H](/C=C/c2ccc3c(c2)OCO3)[C@H](c2ccc3c(c2)OCO3)C=C[C@H]1C(=O)N1CCCCC1)N1CCCCC1
- MIC [8]: 12.5 µg/mL (≈ 21.9 µM)

SMILES: COC(=O)c1cc2c(o1)-c1nccc3c1c(nc1ccccc13)C2=O
- MIC [11]: 0.61 µM

SMILES: CS1(C2=CC(=O)C3=C(C2)c2nccc4cccc(c24)N3)CCC(=O)OC1 (configuration not stated)
- MIC [11]: 2.1 µM

SMILES: CCCCCCCCC[C@@H]1C[C@@H]2CC[C@H]3[C@@H](C(=O)O[C@H](C)CCCCCCC[C@@H]4C[C@@H]5CC[C@@H]6C[C@H](C)NC(=N4)N65)[C@@H](C)N=C(N1)N23
- MIC [2]: 3.18 µg/mL (≈ 4.87 µM)

SMILES: O=Cc1cc2c3ccc(O)cc3[nH]c2c2ccoc12
- MIC [14]: 25 µg/mL (≈ 99.5 µM)

SMILES: COC(=O)[C@@]12COCC=C3CN(CC[C@@H]31)Cc1c2[nH]c2ccccc12
- inhibition at 50 µg/mL [10]: 50%

SMILES: COC1=C(Br)[C@@H](O)[C@]2(C=C1Br)CC(C(=O)NCCCOc1c(Br)cc(C(O)CNC(=O)C3=NO[C@@]4(C=C(Br)C(OC)=C(Br)[C@H]4O)C3)cc1Br)=CO2 (some centres not stated)
- MIC [11]: 8 µg/mL

SMILES: O=C1C=CC2=NC=CC3c4cccc(O)c4N1C23 (configuration not stated)
- MIC [4]: 8 µg/mL (≈ 33.6 µM)
- MIC [9]: 8 µg/mL (≈ 33.6 µM)

SMILES: C=C(c1cc2ccccc2[nH]1)[C@H]1CCN(C)C/C1=C\CO
- inhibition at 50 µg/mL [10]: 50%

SMILES: CC/C=C(\C)C[C@H](C)C[C@H](C)/C(O)=C1/C(=O)N[C@@H](Cc2ccc(O)cc2)C1=O
- MIC [5]: 6.25 µg/mL (≈ 16.2 µM)

SMILES: COC(=O)c1cc2c(s1)-c1nccc3c1c(nc1ccccc13)C2=O
- MIC [11]: 0.58 µM

SMILES: C[C@@]1(COc2ccc(N3CCC(Oc4ccc(OC(F)(F)F)cc4)CC3)cc2)Cn2cc([N+](=O)[O-])nc2O1
- MIC [15]: 0.006 µg/mL (≈ 0.0112 µM)

SMILES: COC(=O)[C@@]12COCC=C3C[N+]([O-])(CC[C@@H]31)Cc1c2[nH]c2ccccc12
- inhibition at 50 µg/mL [10]: 50%

SMILES: CC[C@@H]1[C@@H]2CCN3CC[C@@]4(C(=C2C(=O)OC)Nc2ccccc24)[C@@H]13
- inhibition at 50 µg/mL [10]: 50%

SMILES: COC(=O)[C@@]1(c2cc3ccccc3[nH]2)COCC=C2CN(C)CC[C@@H]21 [6,7-SECO-ANGUSTILOBINE B]
- inhibition at 50 µg/mL [10]: 50%

SMILES: CC(C)=CCc1c(O)c(C=O)cc2c1[nH]c1cc(O)ccc12 [7-HYDROXYHEPTAPHYLLINE]
- MIC [14]: 25 µg/mL (≈ 84.6 µM)

SMILES: COc1ccc2c3c(c4cc(OC)c(OC)cc4c2c1)CN1CCCC1C3 (stereo not drawn) [(+/-)-DEOXYTYLOPHORININE]
- MIC [16]: 6.25 µg/mL (≈ 17.2 µM)

SMILES: COc1ccc2cc3[n+](cc2c1OC)CCc1cc2c(cc1-3)OCO2.[Cl-] [BERBERINE CHLORIDE]
- MIC [1]: 25 µg/mL
- MIC [4]: 0.78 µg/mL
- MIC [7]: 0.78 µg/mL

SMILES: CC(C)/N=c1\cc2n(-c3ccc(Cl)cc3)c3ccccc3nc-2cc1Nc1ccc(Cl)cc1 [CLOFAZIMINE]
- MIC [17]: 0.12 µg/mL (≈ 0.253 µM)

SMILES: N[C@@H]1CONC1=O [CYCLOSERINE]
- MIC [3]: 3.12 µg/mL (≈ 30.6 µM)
- MIC [1]: 3.12 µg/mL (≈ 30.6 µM)
- MIC [13]: 3.12 µg/mL (≈ 30.6 µM)
- MIC [4]: 3.12 µg/mL (≈ 30.6 µM)
- MIC [6]: 12.5 µg/mL (≈ 122 µM)

SMILES: COc1ccc2cc1Oc1ccc(cc1)C[C@H]1c3cc(c(OC)cc3CCN1C)Oc1c(OC)c(OC)cc3c1[C@H](C2)N(C)CC3 [FANCHININ]
- MIC [18]: 0.25 µg/mL
- MIC [19]: 0.25 µg/mL

SMILES: C=C[C@H]1C=C[C@H]2[C@@H]3C[C@H](C)CC[C@H]3[C@@H]3Oc4ccc(cc4)C[C@]4(O)NC(=O)[C@H](C(=O)[C@@H]1[C@H]23)C4N1C(=O)[C@H]2C(=O)[C@H]3[C@@H](C=C)C=C[C@H]4[C@@H]5C[C@H](C)CC[C@H]5[C@H](Oc5ccc(cc5)C[C@@H]2C1=O)[C@@H]43 (some centres not stated) [HIRSUTELLONE F]
- MIC [2]: 3.12 µg/mL (≈ 3.5 µM)

SMILES: COc1cc2c(cc1O)CC[n+]1cc3c(OC)c(OC)ccc3cc1-2 [JATRORRHIZINE]
- MIC [20]: < 100 µg/mL

SMILES: CC(C)=CCc1c(O)ccc2[nH]c3ccc(C=O)cc3c12 [MICROMELINE]
- MIC [2]: 31.5 µg/mL (≈ 113 µM)

SMILES: O=[N+]([O-])c1c(Cl)cccc1-c1c[nH]cc1Cl [PYRROLNITRIN]
- MIC [1]: 4 µg/mL (≈ 15.6 µM)
- MIC [13]: 4 µg/mL (≈ 15.6 µM)
- MIC [4]: 4 µg/mL (≈ 15.6 µM)
- IC [21]: 0.075 µg/mL
- IC [22]: 0.075 µg/mL
- IC [23]: 0.075 µg/mL

SMILES: O=C1c2ccccc2-c2nccc3ccnc1c23 [SAMPANGINE]
- MIC [20]: 0.78 µg/mL (≈ 3.36 µM)
